According to patent US20260034075A1, “CHOLINE CARBOXYLIC ACID BASED IONIC LIQUIDS AS ANTIMICROBIAL AGENTS” (University of Mississippi, priority 2022, published 2026):
Read-outs that look alike come from different tables or passages of the source.

Assays:
Assay type in all cases: cell-based
[1] = system: Human embryonic kidney (HEK-293) cells
Protocol: Cytotoxicity Studies. Human embryonic kidney (HEK-293) cells were treated in vitro with four of the top candidates (CADA 1:1, CADA 1:2, CA2DE 1:2, and CA3DE 1:2) to determine the concentration at which the IL dosage is toxic to human cells. 1% (w/v) solutions of each IL in sterile water were prepared similarly to the MBC experiments before addition at five different concentrations. The HEK cells were incubated with the IL treatments for 24 hours and then prepared with CellTiter-Glo(R) Luminescent Cell Viability reagent (100 μL per well). Brightfield microscopy images were used to qualitatively depict the concentration at which the cells were no longer viable, while a 96-well plate reader was used to quantitatively determine the percent viability of the cells at each concentration of the ILs. Quantitative measurements were performed in triplicate.
Human Biocompatibility Studies. […]
The viability of the cells was then quantified by preparing the IL-treated cells with 100 μL of CellTiter-Glo(R) Luminescent Cell Viability reagent in each well and measuring the luminescence on the plate reader. […] The results are expressed as percent viability and present as mean±standard deviation of three independent experiments (FIGS. 8A-8D). […]

[2] = system: E. coli; assay: E. coli kinetic study (OD600 over 16 hours, first-order kinetics fit)
Protocol: E. coli Kinetic Study. A 96-well plate was filled with 180 μL of E. coli cells that were cultured as mentioned above and treated with 20 μL CADA 1:1 of concentrations ranging from the lethal concentration to one-sixteenth of that concentration to determine how the growth inhibition is affected with changing concentration of the IL. 20 μL of growth media was added to the “untreated” cells such that all wells contained a total volume of 200 μL. The plate was heated to 37° C. with triplicate OD600 measurements taken every 20 minutes over the course of 16 hours with a Biotek Synergy H1 microplate reader.
Bactericidal and Bacteriostatic Activity Kinetics. […] CADA 1:1 was employed instead of CADA 1:2 in this study because of its lowered turbidity in comparison. 180 μL of liquid E. coli culture was added to each well of a 96-well plate and brought up to 200 μL with either IL treatment or growth media alone if untreated. […] However, the cells treated with sublethal concentrations of IL still show what seem to be minor inhibitory interactions with the IL before exiting the lag phase and starting to grow. […] The turbidity of longer chain choline carboxylic acid-based ILs is quite high in aqueous solution and can falsely be determined as growth in OD measurements. Previous studies have shown that the critical micellar concentration (CMC) tends to […] with alkyl chain length and ionic strength, which could potentially affect antimicrobial efficacy. Therefore, IL solutions in sterile water at the same concentrations used to treat the bacteria were utilized as a control and subtracted from the wells with E. coli cells receiving IL treatment.
Integration of Growth Inhibition Following First-Order Kinetics. […] This was achieved by plotting In([A]T/[A]0) vs. time during the growth period to produce a linear representation of the logarithmic growth. Once the integrations were performed and plotted, rate constants were extracted with uncertainty from the slope of the trendlines. For the untreated cells and cells treated with sublethal concentrations, the logarithmic growth was positive, therefore, the rate constant should be positive. […] The rate of inhibition (k=0.0055±0.0002) was almost one-third of the growth rate of the cells that received no treatment, meaning that the inhibition is occurring immediately and for the duration of the study, suppressing the natural growth of the cells by 70%.

[3] = system: E. coli [BL21(DE3)]; assay: Minimal Bactericidal Concentration (MBC) measurements, E. coli
Protocol: (§1) Bacterial Cell Culturing. Expression cells from frozen stock were streaked onto a kanamycin-selected lysogeny broth (LBKan) agar plate using a sterile loop and incubated overnight at 37° C. One colony was then taken from the plate the next day to inoculate 50 mL of sterile LBKan broth and shaken at 37° C. until reaching a growth concentration of 4×10^8 CFU/mL. This protocol was used for bacterial cell culture preparation in all of the experiments described below.
Minimal Bactericidal Concentration (MBC) Measurements. E. coli cells were cultured as described above and aliquoted into sterile tubes. 1%, 10%, and 100% (w/v) solutions of IL in sterile water (correcting for water percentage of the IL) were prepared and sonicated for 15 minutes at 40° C. before addition to the liquid culture. IL solutions were then added to E. coli at varying percentages (v/v), allowing calculation of the actual concentration of IL that was added to the culture. 100 μL of each solution was then spread onto an LBKan agar plate and incubated overnight at 37° C. […] Each IL solution was tested in triplicate.

[4] = system: MRSA [BAA-1708]; assay: Growth inhibition / MBC of Methicillin Resistant Staphylococcus aureus (MRSA)
Protocol: as §1
Growth Inhibition of Methicillin Resistant Staphylococcus Aureus (MRSA). 10% (w/v) solutions of IL in sterile water were prepared similarly to the E. coli MBC experiments. ILs with anion chain lengths of 8-12 carbons at 1:2 mole ratio of choline to anion were added to MRSA at varying concentrations to determine the lowest concentration in which growth was inhibited. Concentrations were then compared to values obtained for E. coli for each solution.

[5] = Table 1, lowest IL concentration with no growth on LBKan agar plate, triplicate

Row | Compound | E. coli MBC [3, 5] [mM] | further results
1 | CCCCCCCCCC(=O)[O-].C[N+](C)(C)CCO [CADA 1:1, Choline Decanoate 1:1] | 3.48 | percent viability [1]: over 97%; suppression of the natural growth of the cells ([2]; lethal concentration): 70%; rate of inhibition k ([2]; lethal concentration, first-order fit of OD600): 0.0055±0.0002; OD600 course at lethal concentration ([2]; lethal concentrations, 16 hours): inhibited immediately with a steady decrease in OD600; delay of normal growth after the untreated cells entered the log phase ([2]; sublethal doses, extended lag phase): about two; growth rate relative to the rate of the untreated cells ([2]; sublethal treatment): 20-25%; growth rate constant k ([2]; sublethal treatment, first-order fit of OD600): 0.0039±0.0002
2 | Choline Dodecanoate 1:2 [CADDA 1:2] | 8.34 | MRSA MBC [4]: 0.99 mM; MRSA MBC ([4]; Table 2, 1:2 mole ratio ILs): 0.99 mM; E. coli MBC ([3]; Table 2, comparison with MRSA): 8.34 mM
3 | Choline Undecanoate 1:2 [CAUA 1:2] | 1.98 | MRSA MBC ([4]; Table 2, 1:2 mole ratio ILs): 2.10 mM; E. coli MBC ([3]; Table 2, comparison with MRSA): 1.98 mM
4 | Choline 2-Undecenoate 1:2 [CA2UE 1:2] | 1.78 | MRSA MBC ([4]; Table 2, 1:2 mole ratio ILs): 1.06 mM; E. coli MBC ([3]; Table 2, comparison with MRSA): 1.78 mM
5 | Choline 3-Decenoate 1:2 [CA3DE 1:2] | 0.57 | MRSA MBC ([4]; Table 2, 1:2 mole ratio ILs): 1.13 mM; E. coli MBC ([3]; Table 2, comparison with MRSA): 0.57 mM
6 | Choline Decanoate 1:2 [CADA 1:2] | 0.56 | percent viability [1]: > 60%; MRSA MBC ([4]; Table 2, 1:2 mole ratio ILs): 2.23 mM; E. coli MBC / killing efficacy concentration [3]: 0.56 mM; E. coli MBC ([3]; Table 2, comparison with MRSA): 0.56 mM
7 | CCCCC/C=C/CC(=O)O [CA3NE 1:1, Choline 3-Nonenoate 1:1] | 57.50 | 
8 | CCOCC(=O)[O-].C[N+](C)(C)CCO [CAEA 1:1, Choline Ethoxyacetate 1:1] | 1746.07 | 
9 | Choline 3-Pentenoate 1:2 [CA3PE 1:2] | 134.83 | 
10 | Choline 3-Heptenoate 1:2 [CA3HPE 1:2] | 18.93 | 
11 | Choline Pentanoate 1:2 [CAPA 1:2] | 110.37 | 
12 | CCCCCC(=O)[O-].C[N+](C)(C)CCO [CAHA 1:1, Choline Hexanoate 1:1] | 483.53 | 
13 | C[N+](C)(C)CCO.O=C([O-])CC(=O)O [CAMA 1:1, Choline Malonate 1:1] | 1368.53 | 
14 | CCC=CC(=O)[O-].C[N+](C)(C)CCO [CA2PE 1:1, Choline 2-Pentenoate 1:1] | 1151.30 | 
15 | CCCCC/C=C/C(=O)O [CA2OE 1:1, Choline 2-Octenoate 1:1] | 84.70 | 
16 | Choline 2-Heptenoate 1:2 [CA2HPE 1:2] | 21.33 | 
17 | CC/C=C/CC(=O)O [CA3HE 1:1, Choline 3-Hexenoate 1:1] | 511.17 | 
18 | Choline Octanoate 1:2 [CAOA 1:2] | 4.91 | 
19 | CCCCCCCC/C=C/C(=O)O [CA2UE 1:1, Choline 2-Undecenoate 1:1] | 15.08 | 
20 | Choline Butanoate 1:2 [CABA 1:2] | 152.70 | 
21 | Choline Acetoxyacetate 1:2 [CAAA 1:2] | 12.41 | 
22 | CCCCCCCC(=O)[O-].C[N+](C)(C)CCO [CAOA 1:1, Choline Octanoate 1:1] | 76.63 | 
23 | C[N+](C)(C)CCO.O=C([O-])/C=C/C(=O)O [CAFU 1:1, Choline Fumarate 1:1] | 27.17 | 
24 | CCCCCCCCC(=O)[O-].C[N+](C)(C)CCO [CANA 1:1, Choline Nonanoate 1:1] | 13.63 | 
25 | CCCC=CCC(=O)[O-].C[N+](C)(C)CCO [CA3HPE 1:1, Choline 3-Heptenoate 1:1] | 347.63 | 
26 | CCCCC(=O)[O-].C[N+](C)(C)CCO [CAPA 1:1, Choline Pentanoate 1:1] | 792.10 | 
27 | Choline 2-Hexenoate 1:2 [CA2HE 1:2] | 54.37 | 
